{"source": "EPA's ToxRefDB 2", "key": {"[1]": {"test_system": "rat", "conditions": "Subchronic oral toxicity in rodents, sprague dawley, Feed, dose end: 90 day, group: systemic"}, "[2]": {"test_system": "rat", "conditions": "Prenatal developmental toxicity study, sprague dawley, Oral, Gavage/Intubation, dose end: 15 GD"}, "[3]": {"test_system": "rat", "conditions": "Multigenerational reproductive toxicity study, sprague dawley, Oral, Feed, dose end: 2 generation; for LOAEL: systemic / organ weight / brain / nos"}, "[4]": {"test_system": "rat", "conditions": "Subchronic oral toxicity in rodents, sprague dawley, Feed, dose end: 90 day, group: systemic", "remark": "listed apart in the source"}, "[5]": {"test_system": "rat", "conditions": "Subchronic oral toxicity in rodents, sprague dawley, Feed, dose end: 90 day, group: systemic, systemic / in life observation / body weight / body weight + systemic / in life observation / body weight / body weight gain + systemic / in…"}, "[6]": {"test_system": "mouse", "conditions": "Subchronic oral toxicity in rodents, other, Feed, dose end: 90 day, group: systemic"}, "[7]": {"test_system": "dog", "conditions": "Chronic toxicity, beagle, Oral, Capsule, dose end: 12 month, group: systemic"}, "[8]": {"test_system": "rat", "conditions": "Combined chronic toxicity/carcinogenicity, sprague dawley, Oral, [Not Specified], dose end: 2 year, group: systemic"}, "[9]": {"test_system": "mouse", "conditions": "Carcinogenicity, cd1, Oral, Feed, dose end: 81 week, group: systemic"}, "[10]": {"test_system": "rat", "conditions": "Subchronic oral toxicity in rodents, sprague dawley, Feed, dose end: 93 day, group: systemic"}, "[11]": {"conditions": "systemic / organ weight / liver / relative to body weight + systemic / pathology microscopic / liver / cytoplasmic alteration + systemic / …"}, "[12]": {"conditions": "group: developmental, developmental / developmental malformation / bone / incomplete ossification + systemic / in life observation / body weight / fetal weight"}, "[13]": {"conditions": "group: maternal, systemic / in life observation / body weight / body weight gain + systemic / in life observation / food consumption / food consumption"}, "[14]": {"conditions": "group: offspring, systemic / organ weight / brain / nos + systemic / in life observation / body weight / offspring (pup) weight + systemic / organ weight / …"}, "[15]": {"conditions": "systemic / organ weight / liver / absolute + systemic / organ weight / liver / relative to body weight + systemic / organ weight / liver / …"}, "[16]": {"conditions": "systemic / pathology gross / liver / [other] + systemic / pathology microscopic / thyroid gland / colloid content"}, "[17]": {"conditions": "systemic / organ weight / liver / relative to brain weight + systemic / pathology gross / liver / [other] + systemic / pathology microscopic…"}, "[18]": {"conditions": "systemic / pathology microscopic / spleen / pigmentation"}, "[19]": {"conditions": "systemic / clinical chemistry / alkaline phosphatase (alp/alk) / alkaline phosphatase (alp/alk) + systemic / clinical chemistry / …"}, "[20]": {"conditions": "systemic / clinical chemistry / alkaline phosphatase (alp/alk) / alkaline phosphatase (alp/alk) + systemic / in life observation / clinical …"}, "[21]": {"conditions": "systemic / in life observation / body weight / body weight + systemic / in life observation / body weight / body weight gain + systemic / in…"}, "[22]": {"conditions": "systemic / clinical chemistry / cholesterol / cholesterol + systemic / organ weight / liver / absolute + systemic / organ weight / liver / …"}, "[23]": {"conditions": "systemic / pathology gross / liver / enlarged"}}, "data": [{"smiles": "CSC1=N[C@@](C)(c2ccccc2)C(=O)N1Nc1ccccc1", "note": "[Fenamidone]", "values": [{"measurement": "LEL", "setting": "[1]; systemic / clinical chemistry / aspartate aminotransferase (ast/sgot) / aspartate aminotransferase (ast/sgot)", "value": 10.4, "unit": "mg/kg/day"}, {"measurement": "LOAEL", "setting": "[1]; systemic / organ weight / liver / relative to body weight + systemic / pathology microscopic / liver / cytoplasmic alteration", "value": 68.3, "unit": "mg/kg/day"}, {"measurement": "NEL", "setting": "[1]; [11]", "value": 4.05, "unit": "mg/kg/day"}, {"measurement": "NOAEL", "setting": "[1]; [11]", "value": 10.4, "unit": "mg/kg/day"}, {"measurement": "LEL", "setting": "[2]; [12]", "value": 1000, "unit": "mg/kg/day"}, {"measurement": "LOAEL", "setting": "[2]; [12]", "value": 1000, "unit": "mg/kg/day"}, {"measurement": "NEL", "setting": "[2]; [12]", "value": 150, "unit": "mg/kg/day"}, {"measurement": "NOAEL", "setting": "[2]; [12]", "value": 150, "unit": "mg/kg/day"}, {"measurement": "LEL", "setting": "[2]; [13]", "value": 1000, "unit": "mg/kg/day"}, {"measurement": "LOAEL", "setting": "[2]; [13]", "value": 1000, "unit": "mg/kg/day"}, {"measurement": "NEL", "setting": "[2]; [13]", "value": 150, "unit": "mg/kg/day"}, {"measurement": "NOAEL", "setting": "[2]; [13]", "value": 150, "unit": "mg/kg/day"}, {"measurement": "LOAEL", "setting": "[3]; group: offspring", "value": 89.2, "unit": "mg/kg/day"}, {"measurement": "LEL", "setting": "[3]; group: offspring, systemic / organ weight / brain / nos + systemic / in life observation / body weight / offspring (pup) weight", "value": 89.2, "unit": "mg/kg/day"}, {"measurement": "NEL", "setting": "[3]; [14]", "value": 5.45, "unit": "mg/kg/day"}, {"measurement": "NOAEL", "setting": "[3]; [14]", "value": 5.45, "unit": "mg/kg/day"}, {"measurement": "LEL", "setting": "[3]; group: parental, systemic / in life observation / food consumption / food consumption", "value": 63.8, "unit": "mg/kg/day"}, {"measurement": "NEL", "setting": "[3]; group: parental, systemic / in life observation / food consumption / food consumption + systemic / in life observation / body weight / body weight + systemic…", "value": 3.9, "unit": "mg/kg/day"}, {"measurement": "LOAEL", "setting": "[3]; group: parental", "value": 89.2, "unit": "mg/kg/day"}, {"measurement": "NOAEL", "setting": "[3]; group: parental, systemic / organ weight / brain / nos + systemic / in life observation / body weight / body weight + systemic / organ weight / liver / …", "value": 5.45, "unit": "mg/kg/day"}, {"measurement": "LOAEL", "setting": "[4]; [15]", "value": 32.9, "unit": "mg/kg/day"}, {"measurement": "NOAEL", "setting": "[4]; [15]", "value": 6.42, "unit": "mg/kg/day"}, {"measurement": "LEL", "setting": "[4]; [16]", "value": 6.42, "unit": "mg/kg/day"}, {"measurement": "NEL", "setting": "[4]; [16]", "value": "< 6.42", "unit": "mg/kg/day"}, {"measurement": "LEL", "setting": "[5]", "value": 305, "unit": "mg/kg/day"}, {"measurement": "LOAEL", "setting": "[5]", "value": 305, "unit": "mg/kg/day"}, {"measurement": "NEL", "setting": "[5]", "value": 29.7, "unit": "mg/kg/day"}, {"measurement": "NOAEL", "setting": "[5]", "value": 29.7, "unit": "mg/kg/day"}, {"measurement": "LOAEL", "setting": "[6]; [17]", "value": 220, "unit": "mg/kg/day"}, {"measurement": "NOAEL", "setting": "[6]; [17]", "value": 44.5, "unit": "mg/kg/day"}, {"measurement": "LEL", "setting": "[6]; [18]", "value": 11.3, "unit": "mg/kg/day"}, {"measurement": "NEL", "setting": "[6]; [18]", "value": "< 11.3", "unit": "mg/kg/day"}, {"measurement": "LEL", "setting": "[7]; [19]", "value": 1000, "unit": "mg/kg/day"}, {"measurement": "LOAEL", "setting": "[7]; [19]", "value": 1000, "unit": "mg/kg/day"}, {"measurement": "NEL", "setting": "[7]; [20]", "value": 100, "unit": "mg/kg/day"}, {"measurement": "NOAEL", "setting": "[7]; [20]", "value": 100, "unit": "mg/kg/day"}, {"measurement": "NEL", "setting": "[8]; systemic / organ weight / uterus / absolute + systemic / organ weight / uterus / relative to body weight", "value": 335, "unit": "mg/kg/day"}, {"measurement": "LOAEL", "setting": "[8]; systemic / pathology microscopic / thyroid gland / hyperplasia", "value": 7.07, "unit": "mg/kg/day"}, {"measurement": "NOAEL", "setting": "[8]; systemic / pathology microscopic / thyroid gland / hyperplasia + systemic / clinical chemistry / alanine aminotransferase (alt/sgpt) / …", "value": 2.83, "unit": "mg/kg/day"}, {"measurement": "LOAEL", "setting": "[9]; [21]", "value": 526, "unit": "mg/kg/day"}, {"measurement": "NEL", "setting": "[9]; [21]", "value": 9.5, "unit": "mg/kg/day"}, {"measurement": "NOAEL", "setting": "[9]; [21]", "value": 47.5, "unit": "mg/kg/day"}, {"measurement": "LEL", "setting": "[9]; systemic / organ weight / liver / nos", "value": 47.5, "unit": "mg/kg/day"}, {"measurement": "LOAEL", "setting": "[10]; [22]", "value": 93.3, "unit": "mg/kg/day"}, {"measurement": "NOAEL", "setting": "[10]; [22]", "value": 9.4, "unit": "mg/kg/day"}, {"measurement": "LEL", "setting": "[10]; [23]", "value": 9.4, "unit": "mg/kg/day"}, {"measurement": "NEL", "setting": "[10]; [23]", "value": "< 9.4", "unit": "mg/kg/day"}]}]}
